Measured values from US20100034867A1, “DRUG DELIVERY COATING FOR USE WITH A MEDICAL DEVICE AND METHODS OF TREATING VASCULAR INJURY” (ATRIUM MEDICAL CORPORATION, priority 2005, published 2010).
Read-outs that look alike come from different tables or passages of the source. Values belong to the molecule of their own block, whether it stands above or below them.

What was measured:
rabbit illiac arteries [1] = details: in vivo, 28 days
rabbit illiac arteries [2] = test: Methylprednisolone/Cilostazol/Paclitaxel/Taxus study: stents implanted in rabbit iliac arteries for 28 days, histomorphic and histopathologic analyses; details: for reduction in neointima (in words): coated stents; for EEL Area / IEL Area / Intimal Area / Lumen Area / Stenosis: ALPHA-3 coated Atrium Flyer stent, mean ± SD
rabbit's iliac vessel = test: Rapamycin drug eluting stents in rabbit iliac vessel (inflammation, overlapping stents); assay type: in vivo
Source text: The inventors postulate, based on these animal study results, that one consequence of these types of drugs is retarded endothelial cell coverage, and that current drug eluting stents promote more chronic inflammation than would normally be present with a non drug eluting bare metal stent.

rabbit illiac arteries [3] = details: in vivo
Protocol: The Atrium Flyer is compared with bare metal stents, the Atrium Flyer coated with ALPHA-3 without drugs, and Cypher™ drug eluting stent. Histomorphic and histopathologic analyses are then performed.

rabbit iliacs = test: Local delivery of calcineurin inhibiting compounds after vascular injury in rabbit iliacs; assay type: in vivo
Source text: Studies in rabbit iliacs following vascular injury conducted by and/or on behalf of the inventors show the benefits of using calcineurin inhibiting compounds like Tacrolimus, Cyclosporin A (CsA) and Cyclosporin derivatives, in small animals like the rat, and in rabbits. […] Such vascular injury and sirolimus medicated inflammation can be characterized as having excessive giant cell formation and esinophil propagation.

Fibrin Score (rabbit illiac arteries [1]): 0
SMILES: O=C1CCc2cc(OCCCCc3nnnn3C3CCCCC3)ccc2N1 [Cilostazol]
reduction in neointima (in words) (rabbit illiac arteries [2]): No reduction in neointima

SMILES: C[C@H]1C[C@@H]2[C@H]([C@@H](O)C[C@@]3(C)[C@H]2CC[C@]3(O)C(=O)CO)[C@@]2(C)C=CC(=O)C=C12 [Methylprednilsolone]
EEL Area (rabbit illiac arteries [2]; high dose): 5.50 ± 0.26 mm^2
IEL Area (rabbit illiac arteries [2]; high dose): 5.25 ± 0.24 mm^2
Intimal Area (rabbit illiac arteries [2]; high dose): 1.165 ± 0.231 mm^2
Lumen Area (rabbit illiac arteries [2]; high dose): 4.08 ± 0.21 mm^2
Stenosis (rabbit illiac arteries [2]; high dose): 22.2 ± 1.4%
EEL Area (rabbit illiac arteries [2]; low dose): 5.90 ± 0.92 mm^2
IEL Area (rabbit illiac arteries [2]; low dose): 5.62 ± 0.90 mm^2
Intimal Area (rabbit illiac arteries [2]; low dose): 1.054 ± 0.923 mm^2
Lumen Area (rabbit illiac arteries [2]; low dose): 4.42 ± 0.82 mm^2
Stenosis (rabbit illiac arteries [2]; low dose): 21.5 ± 4.7%
EEL Area (rabbit illiac arteries [2]; mid-dose): 5.68 ± 0.34 mm^2
IEL Area (rabbit illiac arteries [2]; mid-dose): 5.40 ± 0.30 mm^2
Intimal Area (rabbit illiac arteries [2]; mid-dose): 1.247 ± 0.136 mm^2
Lumen Area (rabbit illiac arteries [2]; mid-dose): 4.16 ± 0.40 mm^2
Stenosis (rabbit illiac arteries [2]; mid-dose): 23.1 ± 2.2%
reduction in neointima (in words) (rabbit illiac arteries [2]): No reduction in neointima

Fibrin Score (rabbit illiac arteries [1]): 0
SMILES: CC(=O)O[C@H]1C(=O)[C@@]2(C)[C@H]([C@H](OC(=O)c3ccccc3)[C@]3(O)C[C@H](OC(=O)[C@H](O)[C@@H](NC(=O)c4ccccc4)c4ccccc4)C(C)=C1C3(C)C)[C@]1(OC(C)=O)CO[C@@H]1C[C@@H]2O [Paclitaxel]
arterial healing compared with Taxus Express (rabbit illiac arteries [1]): (greater) arterial healing at 28 days compared with Taxus™ Express
in-stent neointimal growth (in words) (rabbit illiac arteries [2]; Atrium stents, high dose): suppresses in-stent neointimal growth at 28 days similarly to the Taxus™ Express stent

SMILES: CO[C@H]1C[C@@H]2CC[C@@H](C)[C@@](O)(O2)C(=O)C(=O)N2CCCC[C@H]2C(=O)O[C@H]([C@H](C)C[C@@H]2CC[C@@H](O)[C@H](OC)C2)CC(=O)[C@H](C)/C=C(\C)[C@@H](O)[C@@H](OC)C(=O)[C@H](C)C[C@H](C)/C=C/C=C/C=C/1C [Sirolimus]
inflammatory response around the drug eluting stent (rabbit's iliac vessel; rabbit iliacs): presence of numerous giant cells and esinophils
inflammation induced by the overlapping drug coating (rabbit's iliac vessel; two separate drug eluting stents overlapping in rabbit iliac vessel): increases nearly two fold
arterial healing compared with Taxus Express (rabbit illiac arteries [2]; Atrium stents, high dose): (greater) arterial healing at 28 days compared with Taxus™ Express
tolerability of the coated stent (rabbit illiac arteries [3]): well tolerated, producing no adverse reaction

SMILES: C=CC[C@@H]1/C=C(\C)C[C@H](C)C[C@H](OC)[C@H]2O[C@@](O)(C(=O)C(=O)N3CCCC[C@H]3C(=O)O[C@H](/C(C)=C/[C@@H]3CC[C@@H](O)[C@H](OC)C3)[C@H](C)[C@@H](O)CC1=O)[C@H](C)C[C@@H]2OC [Tacrolimus]
inflammation following vascular injury (rabbit iliacs): effectively reduce inflammation following vascular injury
